We go through three molecules from patent publication US9447083B2, “N-acylhydrazone derivatives for selective T cell inhibitor and anti-lymphoid malignancy drug” (CHONG KUN DANG PHARMACEUTICAL CORP., priority 2012, dated 2016).

What all share (assay type): cell-based
In test [1] the test system is Jurkat. Kind of test: Apoptosis of lymphoid malignancy cell lines (Annexin V / 7-AAD): Jurkat. The conditions noted are these: Homo sapiens, Acute T cell leukemia, 24 hours, read-out: Administration Dose (mean ± SD, μmol/L) Lethal Dose 50 (Apoptosis). The method, then: (§1) Each of the acute T cell leukemia cell lines Jurkat, Molt4 and CCRF-CEM, the acute B cell leukemia cell line Raji and the […] cell lines KMS11, KMS12BM, KMS26, KMS28BM, and IM9 was re-suspended in 10% FBS-containing RPMI medium at a concentration of 1.5×10^5 cells/mL, and 200 μL of each of the cell suspensions was cultured in a flat bottom 96-well plate (Costar). The acute NK cell lymphoma cell line NK-92MI was re-suspended in α-MEM medium (supplemented with 20% FBS, 1×MEM vitamine solution, 50 μM 2-mercaptoethanol and 1× penicillin/streptomycin) at a concentration of 1.5×10^5 cells/mL, and 200 μL of the cell suspension was cultured in a flat bottom 96-well plate. The cells in each well was treated with 10 μL of each of 0.1, 0.25, 0.5, 0.75 and 1 μM of the compound diluted with RPMI medium, followed by that the cells were incubated in a 5% CO2 incubator at 37° C. for 24 hours. In a vehicle control group, cells were treated with 10 μL of medium containing 0.05% dimetylsulfoxide (DMSO, Sigma).
(§2) The cells were collected, and then the apoptosis thereof was analyzed by a flow cytometer after staining with Annexin V-7-AAD. The incubated cells were collected, placed in a 5-mL FACS tube (BD Falcon) and washed with 1 mL of fluorescence activated cell sorting (FACS) buffer (1%. FBS and 0.1% sodium azaide in PBS). The cells were re-suspended in 0.1 mL of FACS buffer, followed by that the cells were treated and stained with phycoerythrin-Annexin V at room temperature for 10 minutes. After 10 minutes of staining, the cells were treated and stained with 7-AAD at room temperature for 5 minutes. The stained cells were suspended in 0.3 mL of FACS buffer, and then analyzed by a flow cytometer. […] Thus, compounds 065, 108, 229 and 457 of the present invention can be used as a novel anti-lymphoid malignancy drug.

The test system of test [2] is KMS28BM. Kind of test: Apoptosis of lymphoid malignancy cell lines: KMS28BM. To be noted: KMS-28BM, Multiple myeloma, 24 hours, read-out: Administration Dose (mean ± SD, μmol/L) Lethal Dose 50 (Apoptosis). The protocol: as §1, with “In a vehicle control group, cells were treated with 10 μL of medium containing 0.05% dimetylsulfoxide (DMSO, Sigma).” left out
(§3) The cells were collected, and then the apoptosis thereof was analyzed by a flow cytometer after staining with Annexin V-7-AAD. The incubated cells were collected, placed in a 5-mL FACS tube (BD Falcon) and washed with 1 mL of fluorescence activated cell sorting (FACS) buffer (1%. FBS and 0.1% sodium azaide in PBS). […] The stained cells were suspended in 0.3 mL of FACS buffer, and then analyzed by a flow cytometer. […]

In test [3] the test system is NK-92MI. Kind of test: Apoptosis of lymphoid malignancy cell lines: NK-92MI. The conditions noted are these: Acute NK cell lymphoma, 24 hours, read-out: Administration Dose (mean ± SD, μmol/L) Lethal Dose 50 (Apoptosis). The protocol: as §1, with “In a vehicle control group, cells were treated with 10 μL of medium containing 0.05% dimetylsulfoxide (DMSO, Sigma).” left out
as §3

Test [4] concerns Jurkat T cells. Kind of test: Pro-apoptotic activity on Jurkat T cells (FITC-Annexin V / 7-AAD flow cytometry). To be noted: Homo sapiens, 72 hours, cells stained with FITC-Annexin V and 7-AAD among total cells, read-out: Cell Apoptosis Effect to Jurkat T Cell (% in 5 μM). The procedure, abridged: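 Jurkat cells at 1.5×10^5 cells/mL in RPMI/10% FBS treated with compounds at […] or 5 μM final for 72 h at 37° C, vehicle containing 1% DMSO. Stained with FITC-Annexin V and 7-AAD for 15 min at room temperature in pH 7.4 Hepes binding buffer. Apoptosis = % double-stained cells by flow cytometry.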

The subject of test [5] is Raji. Kind of test: Apoptosis of lymphoid malignancy cell lines: Raji. To be noted: Homo sapiens, Acute B cell leukemia, 24 hours, read-out: Administration Dose (mean ± SD, μmol/L) Lethal Dose 50 (Apoptosis). The method, then:
as §1, with “In a vehicle control group, cells were treated with 10 μL of medium containing 0.05% dimetylsulfoxide (DMSO, Sigma).” left out
as §3

Test [6] has as its system Molt4. The experiment in a line: Apoptosis of lymphoid malignancy cell lines: Molt4. The conditions noted are these: Homo sapiens, MOLT-4; Molt4, Acute T cell leukemia, 24 hours; read-out: Administration Dose (mean ± SD, μmol/L) Lethal Dose 50 (Apoptosis). The method, then: as §1, §2
For test [7], the system named is KMS11. Kind of test: Apoptosis of lymphoid malignancy cell lines: KMS11. To be noted: Homo sapiens, KMS-11; KMS11, Multiple myeloma, 24 hours; read-out: Administration Dose (mean ± SD, μmol/L) Lethal Dose 50 (Apoptosis). The protocol:
as §1, with “In a vehicle control group, cells were treated with 10 μL of medium containing 0.05% dimetylsulfoxide (DMSO, Sigma).” left out
as §3

The subject of test [8] is IM9. The experiment in a line: Apoptosis of lymphoid malignancy cell lines: IM9. The conditions noted are these: Homo sapiens, IM-9; IM9, Multiple myeloma, 24 hours; read-out: Administration Dose (mean ± SD, μmol/L) Lethal Dose 50 (Apoptosis). The protocol:
as §1, §2

The test system of test [9] is KMS12BM. Kind of test: Apoptosis of lymphoid malignancy cell lines: KMS12BM. The conditions noted are these: Homo sapiens, KMS-12-BM, Multiple myeloma, 24 hours, read-out: Administration Dose (mean ± SD, μmol/L) Lethal Dose 50 (Apoptosis). The method, then:
as §1, with “In a vehicle control group, cells were treated with 10 μL of medium containing 0.05% dimetylsulfoxide (DMSO, Sigma).” left out
as §3

Test [10] has as its system KMS26. The experiment in a line: Apoptosis of lymphoid malignancy cell lines: KMS26. To be noted: KMS-26; KMS26, Multiple myeloma, 24 hours; read-out: Administration Dose (mean ± SD, μmol/L) Lethal Dose 50 (Apoptosis). The method, then:
as §1, with “In a vehicle control group, cells were treated with 10 μL of medium containing 0.05% dimetylsulfoxide (DMSO, Sigma).” left out
as §3

The test system of test [11] is CCRF-CEM. The experiment in a line: Apoptosis of lymphoid malignancy cell lines: CCRF-CEM. The conditions noted are these: Homo sapiens, Acute T cell leukemia, 24 hours, read-out: Administration Dose (mean ± SD, μmol/L) Lethal Dose 50 (Apoptosis). The protocol:
as §1, with “In a vehicle control group, cells were treated with 10 μL of medium containing 0.05% dimetylsulfoxide (DMSO, Sigma).” left out
as §3

In the case of `Cc1cc(C)c(OCC(=O)N/N=C/c2ccc3cc[nH]c3c2)c(C2CCOCC2)c1` [Compound 457, (E)-N′-((1H-indol-6-yl)methylene)-2-(2,4-dimethyl-6-(tetrahydro-2H-pyran-4-yl)phenoxy)acetohydrazide], the EC50 in [1] amounted to 0.2 ± 0.01 µmol/L; in test [2], 0.47 ± 0.06 µmol/L; in test [3], 0.46 ± 0.01 µmol/L; in test [5], 0.68 ± 0.05 µmol/L; in [6] it was 0.25 ± 0.11 µmol/L; in test [7], 0.63 ± 0.31 µmol/L. Further, the EC50 amounted to 0.38 ± 0.01 µmol/L in test [8], 0.22 ± 0.02 µmol/L in test [9], 0.55 ± 0.12 µmol/L in [10] and 0.17 µmol/L in test [11]. Also, the cytotoxicity at 5 µM in [4] was determined as 100%.

As for `Cc1cc(C)c(OCC(=O)N/N=C/c2cccc3[nH]ccc23)c(C)c1` [Compound 065, (E)-N′-((1H-indol-4-yl)methylene)-2-(mesityloxy)acetohydrazide], the figures for the EC50 in test [1], in [6] and in test [8] were 0.79 ± 0.01 µmol/L, 1.58 ± 0.03 µmol/L and 1.21 ± 0.01 µmol/L, respectively. For the same molecule, in test [4], the cytotoxicity at 5 µM was determined as 100%.

`Cc1cc(C)c(OCC(=O)N/N=C/c2ccc3cc[nH]c3c2)c(C)c1` [Compound 108, (E)-N′-((1H-indol-6-yl)methylene)-2-(mesityloxy)acetohydrazide]: the EC50 in [1] was 0.78 ± 0.04 µmol/L; in [6], 1.38 ± 0.04 µmol/L; in test [8], 1.41 ± 0.03 µmol/L. In [4], the cytotoxicity at 5 µM worked out at 100%.
